According to patent publication US8168647B2, “Vinblastine derivatives, their preparation, use and pharmaceutical compositions comprising the said derivatives” (Shanghai Institute of Materia Medica Chinese Academy of …, priority 2007, dated 2012):

Experiments:
[1] = test system: human non-small cell lung cancer cell line A-549; assay: In vitro cytotoxicity assay, Sulforhodamine B (SRB), A-549; format: cell-based; conditions: Homo sapiens, A549, 72 h, read-out: A549 (IC50, nM)
[2] = test system: human cervical carcinoma cell line Hela; assay: In vitro cytotoxicity assay, Sulforhodamine B (SRB), Hela; format: cell-based; conditions: Homo sapiens, HeLa, 72 h, read-out: Hela (IC50, nM)

Structure (SMILES) | IC50 [1] [nM] | IC50 [2] [nM]
CCOCC1(O)[C@H](OC(C)=O)[C@]2(CC)C=CCN3CC[C@@]4(c5cc([C@@]6(C(=O)OC)C[C@@H]7C=C(CC)CN(CCc8c6[nH]c6ccccc86)C7)c(OC)cc5N(C)[C@@H]14)[C@@H]32 (stereo partly drawn) [BM1] | 348 | 154
C=CCOCC1(O)[C@H](OC(C)=O)[C@]2(CC)C=CCN3CC[C@@]4(c5cc([C@@]6(C(=O)OC)C[C@@H]7C=C(CC)CN(CCc8c6[nH]c6ccccc86)C7)c(OC)cc5N(C)[C@@H]14)[C@@H]32 (stereo partly drawn) [BM2] | 441 | 113
CCCOCC1(O)[C@H](OC(C)=O)[C@]2(CC)C=CCN3CC[C@@]4(c5cc([C@@]6(C(=O)OC)C[C@@H]7C=C(CC)CN(CCc8c6[nH]c6ccccc86)C7)c(OC)cc5N(C)[C@@H]14)[C@@H]32 (stereo partly drawn) [BM3] | > 1000 | > 1000
CCCCOCC1(O)[C@H](OC(C)=O)[C@]2(CC)C=CCN3CC[C@@]4(c5cc([C@@]6(C(=O)OC)C[C@@H]7C=C(CC)CN(CCc8c6[nH]c6ccccc86)C7)c(OC)cc5N(C)[C@@H]14)[C@@H]32 (stereo partly drawn) [BM4] | > 1000 | 295
CCC1=C[C@@H]2CN(CCc3c([nH]c4ccccc34)[C@@](C(=O)OC)(c3cc4c(cc3OC)N(C)[C@H]3C(O)(COCc5ccc(OC)cc5)[C@H](OC(C)=O)[C@]5(CC)C=CCN6CC[C@]43C65)C2)C1 (stereo partly drawn) [BM5] | > 1000 | 286
CCC1=C[C@@H]2CN(CCc3c([nH]c4ccccc34)[C@@](C(=O)OC)(c3cc4c(cc3OC)N(C)[C@H]3C(O)(COC(C)=O)[C@H](OC(C)=O)[C@]5(CC)C=CCN6CC[C@]43C65)C2)C1 (stereo partly drawn) [BM6] | 124 | 47.6
CCC(=O)OCC1(O)[C@H](OC(C)=O)[C@]2(CC)C=CCN3CC[C@@]4(c5cc([C@@]6(C(=O)OC)C[C@@H]7C=C(CC)CN(CCc8c6[nH]c6ccccc86)C7)c(OC)cc5N(C)[C@@H]14)[C@@H]32 (stereo partly drawn) [BM10] | 710 | 637
CCC1=C[C@@H]2CN(CCc3c([nH]c4ccccc34)[C@@](C(=O)OC)(c3cc4c(cc3OC)N(C)[C@H]3C(O)(COC(=O)C(C)C)[C@H](OC(C)=O)[C@]5(CC)C=CCN6CC[C@]43[C@@H]65)C2)C1 (stereo partly drawn) [BM11] | > 1000 | > 1000
CCC1=C[C@@H]2CN(CCc3c([nH]c4ccccc34)[C@@](C(=O)OC)(c3cc4c(cc3OC)N(C)[C@H]3C(O)(COC(=O)C(C)(C)C)[C@H](OC(C)=O)[C@]5(CC)C=CCN6CC[C@]43C65)C2)C1 (stereo partly drawn) [BM12] | 576 | 95.9
CCC1=C[C@@H]2CN(CCc3c([nH]c4ccccc34)[C@@](C(=O)OC)(c3cc4c(cc3OC)N(C)[C@H]3C(O)(COC(=O)CC(C)C)[C@H](OC(C)=O)[C@]5(CC)C=CCN6CC[C@]43[C@@H]65)C2)C1 (stereo partly drawn) [BM13] | > 1000 | > 1000
CCC1=C[C@@H]2CN(CCc3c([nH]c4ccccc34)[C@@](C(=O)OC)(c3cc4c(cc3OC)N(C)[C@H]3C(O)(COC(=O)C5CC5)[C@H](OC(C)=O)[C@]5(CC)C=CCN6CC[C@]43[C@@H]65)C2)C1 (stereo partly drawn) [BM14] | > 1000 | > 1000
CCC1=C[C@@H]2CN(CCc3c([nH]c4ccccc34)[C@@](C(=O)OC)(c3cc4c(cc3OC)N(C)[C@H]3C(O)(COC(=O)Cc5ccccc5)[C@H](OC(C)=O)[C@]5(CC)C=CCN6CC[C@]43[C@@H]65)C2)C1 (stereo partly drawn) [BM15] | > 1000 | 228
CCC1=C[C@@H]2CN(CCc3c([nH]c4ccccc34)[C@@](C(=O)OC)(c3cc4c(cc3OC)N(C)[C@H]3C(O)(COC(=O)NCC(C)C)[C@H](OC(C)=O)[C@]5(CC)C=CCN6CC[C@]43C65)C2)C1 (stereo partly drawn) [BM22] | > 1000 | > 1000
CCCCNC(=O)OCC1(O)[C@H](OC(C)=O)[C@]2(CC)C=CCN3CC[C@@]4(c5cc([C@@]6(C(=O)OC)C[C@@H]7C=C(CC)CN(CCc8c6[nH]c6ccccc86)C7)c(OC)cc5N(C)[C@@H]14)[C@@H]32 (stereo partly drawn) [BM23] | > 1000 | > 1000
CCC1=C[C@@H]2CN(CCc3c([nH]c4ccccc34)[C@@](C(=O)OC)(c3cc4c(cc3OC)N(C)[C@H]3C(O)(COC(=O)NCCC(C)C)[C@H](OC(C)=O)[C@]5(CC)C=CCN6CC[C@]43[C@@H]65)C2)C1 (stereo partly drawn) [BM24] | > 1000 | > 1000
CCC1=C[C@@H]2CN(CCc3c([nH]c4ccccc34)[C@@](C(=O)OC)(c3cc4c(cc3OC)N(C)[C@H]3C(O)(CNC(C)=O)[C@H](OC(C)=O)[C@]5(CC)C=CCN6CC[C@]43[C@@H]65)C2)C1 (stereo partly drawn) [BM25] | > 1000 | 477
CCC1=C[C@@H]2CN(CCc3c([nH]c4ccccc34)[C@@](C(=O)OC)(c3cc4c(cc3OC)N(C)[C@H]3C(O)(CNC(=O)C(F)(F)F)[C@H](OC(C)=O)[C@]5(CC)C=CCN6CC[C@]43[C@@H]65)C2)C1 (stereo partly drawn) [BM26] | 56.3 | 61.6
CCC1=C[C@@H]2CN(CCc3c([nH]c4ccccc34)[C@@](C(=O)OC)(c3cc4c(cc3OC)N(C)[C@H]3C(O)(CNC(=O)C(C)C)[C@H](OC(C)=O)[C@]5(CC)C=CCN6CC[C@]43[C@@H]65)C2)C1 (stereo partly drawn) [BM28] | 101 | 75.8

Structure (SMILES) | IC50 [1] [nM] | IC50 [2] [nM]
CCCC(=O)NCC1(O)[C@H](OC(C)=O)[C@]2(CC)C=CCN3CC[C@@]4(c5cc([C@@]6(C(=O)OC)C[C@@H]7C=C(CC)CN(CCc8c6[nH]c6ccccc86)C7)c(OC)cc5N(C)[C@@H]14)[C@@H]32 (stereo partly drawn) [BM29] | 348 | 126
CCC1=C[C@@H]2CN(CCc3c([nH]c4ccccc34)[C@@](C(=O)OC)(c3cc4c(cc3OC)N(C)[C@H]3C(O)(CNC(=O)CC(C)C)[C@H](OC(C)=O)[C@]5(CC)C=CCN6CC[C@]43[C@@H]65)C2)C1 (stereo partly drawn) [BM30] | > 1000 | > 1000
CCC1=C[C@@H]2CN(CCc3c([nH]c4ccccc34)[C@@](C(=O)OC)(c3cc4c(cc3OC)N(C)[C@H]3C(O)(CNC(=O)CC(C)(C)C)[C@H](OC(C)=O)[C@]5(CC)C=CCN6CC[C@]43[C@@H]65)C2)C1 (stereo partly drawn) [BM31] | 395 | 245
C=C(C)C(=O)NCC1(O)[C@H](OC(C)=O)[C@]2(CC)C=CCN3CC[C@@]4(c5cc([C@@]6(C(=O)OC)C[C@@H]7C=C(CC)CN(CCc8c6[nH]c6ccccc86)C7)c(OC)cc5N(C)[C@@H]14)[C@@H]32 (stereo partly drawn) [BM32] | 17.9 | 12.5
CCC1=C[C@@H]2CN(CCc3c([nH]c4ccccc34)[C@@](C(=O)OC)(c3cc4c(cc3OC)N(C)[C@H]3C(O)(CNC(=O)C(C)(C)C)[C@H](OC(C)=O)[C@]5(CC)C=CCN6CC[C@]43[C@@H]65)C2)C1 (stereo partly drawn) [BM34] | 338 | 73.5
CCC1=C[C@@H]2CN(CCc3c([nH]c4ccccc34)[C@@](C(=O)OC)(c3cc4c(cc3OC)N(C)[C@H]3C(O)(CNC(=O)C5CCC5)[C@H](OC(C)=O)[C@]5(CC)C=CCN6CC[C@]43[C@@H]65)C2)C1 (stereo partly drawn) [BM35] | 117 | 45.2
CCC1=C[C@@H]2CN(CCc3c([nH]c4ccccc34)[C@@](C(=O)OC)(c3cc4c(cc3OC)N(C)[C@H]3C(O)(CNC(=O)c5ccccc5)[C@H](OC(C)=O)[C@]5(CC)C=CCN6CC[C@]43[C@@H]65)C2)C1 (stereo partly drawn) [BM36] | 87.4 | 16.4
CCC1=C[C@@H]2CN(CCc3c([nH]c4ccccc34)[C@@](C(=O)OC)(c3cc4c(cc3OC)N(C)[C@H]3C(O)(CNC(=O)c5ccc(C)cc5)[C@H](OC(C)=O)[C@]5(CC)C=CCN6CC[C@]43[C@@H]65)C2)C1 (stereo partly drawn) [BM37] | 20.7 | 16
CCC1=C[C@@H]2CN(CCc3c([nH]c4ccccc34)[C@@](C(=O)OC)(c3cc4c(cc3OC)N(C)[C@H]3C(O)(CNC(=O)c5ccc(F)cc5)[C@H](OC(C)=O)[C@]5(CC)C=CCN6CC[C@]43C65)C2)C1 (stereo partly drawn) [BM38] | 46.5 | 20.4
CCC1=C[C@@H]2CN(CCc3c([nH]c4ccccc34)[C@@](C(=O)OC)(c3cc4c(cc3OC)N(C)[C@H]3C(O)(CNC(=O)c5cccc(Cl)c5)[C@H](OC(C)=O)[C@]5(CC)C=CCN6CC[C@]43C65)C2)C1 (stereo partly drawn) [BM40] | 103 | 42
CCC1=C[C@@H]2CN(CCc3c([nH]c4ccccc34)[C@@](C(=O)OC)(c3cc4c(cc3OC)N(C)[C@H]3C(O)(CNC(=O)c5ccncc5)[C@H](OC(C)=O)[C@]5(CC)C=CCN6CC[C@]43C65)C2)C1 (stereo partly drawn) [BM42] | 78.3 | 22.4
CCC1=C[C@@H]2CN(CCc3c([nH]c4ccccc34)[C@@](C(=O)OC)(c3cc4c(cc3OC)N(C)[C@H]3C(O)(CNC(=O)c5ccc(OC)cc5)[C@H](OC(C)=O)[C@]5(CC)C=CCN6CC[C@]43C65)C2)C1 (stereo partly drawn) [BM45] | 578 | 135
CCC1=C[C@@H]2CN(CCc3c([nH]c4ccccc34)[C@@](C(=O)OC)(c3cc4c(cc3OC)N(C)[C@H]3C(O)(CNC(=O)Cc5ccccc5)[C@H](OC(C)=O)[C@]5(CC)C=CCN6CC[C@]43C65)C2)C1 (stereo partly drawn) [BM46] | 174 | 22.9
CCC1=C[C@@H]2CN(CCc3c([nH]c4ccccc34)[C@@](C(=O)OC)(c3cc4c(cc3OC)N(C)[C@H]3C(O)(CNC(=O)OC(C)C)[C@H](OC(C)=O)[C@]5(CC)C=CCN6CC[C@]43[C@@H]65)C2)C1 (stereo partly drawn) [BM50] | 162 | 26.2
CCC1=C[C@@H]2CN(CCc3c([nH]c4ccccc34)[C@@](C(=O)OC)(c3cc4c(cc3OC)N(C)[C@H]3C(O)(CNC(=O)OC(C)(C)C)[C@H](OC(C)=O)[C@]5(CC)C=CCN6CC[C@]43[C@@H]65)C2)C1 (stereo partly drawn) [BM51] | 505 | 172
CCC1=C[C@@H]2CN(CCc3c([nH]c4ccccc34)[C@@](C(=O)OC)(c3cc4c(cc3OC)N(C)[C@H]3C(O)(CNC(=O)OCCOC)[C@H](OC(C)=O)[C@]5(CC)C=CCN6CC[C@]43[C@@H]65)C2)C1 (stereo partly drawn) [BM54] | 632 | 425
CCCCCOC(=O)NCC1(O)[C@H](OC(C)=O)[C@]2(CC)C=CCN3CC[C@@]4(c5cc([C@@]6(C(=O)OC)C[C@@H]7C=C(CC)CN(CCc8c6[nH]c6ccccc86)C7)c(OC)cc5N(C)[C@@H]14)[C@@H]32 (stereo partly drawn) [BM56] | 332 | 78.4
CCC1=C[C@@H]2CN(CCc3c([nH]c4ccccc34)[C@@](C(=O)OC)(c3cc4c(cc3OC)N(C)[C@H]3C(O)(CNC(=O)OC5CCC5)[C@H](OC(C)=O)[C@]5(CC)C=CCN6CC[C@]43[C@@H]65)C2)C1 (stereo partly drawn) [BM58] | 97.3 | 62.9
